According to patent US10544110B2, “Small molecule inhibitors of the nuclear translocation of androgen receptor for the treatment of castration-resistant prostate cancer” (University of Pittsburgh-Of the Commonwealth System of …, priority 2013, dated 2020):

Assays:
[1] = test system: AR transcriptional activity (PSA promoter activity); assay: PSA luciferase assay in C4-2-PSA-rl cells (Dual-Glo luciferase system); settings: C4-2-PSA-rl cells
Experimental: C4-2-PSA-rl cells were seeded in 24-well plates such that they reached 75-80% cell monolayer density after 24 h. […] Each compound was tested in at least two independent experiments. Luciferase activity was assayed using the Dual-Luciferase® Reporter Assay System (Promega) using LMax II Microplate Reader (Molecular Devices). The luciferase assay results were acquired using SoftMax Pro5.45 software (Molecular Devices) and analyzed using GraphPad Prism. PSA6.1-luc activity was normalized to the Renilla luciferase activity. Relative luciferase activity was calculated as the quotient of androgen-induced PSA-firefly/Renilla luciferase activity. Since PSA promoter activity correlates to AR transcriptional activity, inhibition of AR will result in decreased PSA-luciferase activity.

22Rv 1 xenograft tumors = assay: 22Rv1 xenograft tumor growth; assay type: in vivo; settings: castrated SCID mice, daily IP 10 mg/kg and 75 mg/kg
Experimental: FIG. 11 is a graph showing the effect of compound JJ-450 at indicated concentrations on 22Rv 1 xenograft tumor volume. JJ-450 was injected i.p. daily.
22Rv 1 xenograft tumors were established in SCID mice by subcutaneous injection of 2×10^6 cells in Matrigel. Once the tumors reached ˜150 μL in volume, the mice were castrated and randomized into 3 groups for daily IP injection of vehicle (n=11), 10 mg/kg (n=11) and 75 mg/kg (n=11) groups. Injection of JJ-450 was initiated at time of castration. Tumor volumes were measured 3 times every week. […] Error bars, SEM.

LNCaP xenograft tumors = assay: LNCaP xenograft tumor growth; assay type: in vivo; settings: castrated SCID mice, oral gavage 10 or 75 mg/kg or IP 10 mg/kg, started 2 weeks after castration
Experimental: FIG. 12 is a graph showing the effect of compound JJ-450 at indicated concentrations and administration route on LNCaP xenograft tumor volume. JJ-450 was administered 6 times, from Monday to Saturday, every week
LNCaP xenograft tumors were established in SCID mice by subcutaneous injection of 2×10^6 cells in Matrigel. Once the tumors reached ˜200 ul in volume, the mice were castrated and randomized into 4 groups: oral gavage of vehicle (n=6), oral gavage at 10 mg/kg (n=6), IP injection at 10 mg/kg (n=8), and oral gavage at 75 mg/kg (n=7) groups. Administration of JJ-450 was started 2 weeks after castration. Tumor volumes were measured twice every week. […] Error bars, SEM.

22Rv1 = assay: Effectiveness against androgen-dependent prostate cancer cell line 22Rv1; assay type: cell-based

SMILES	IC50 ([1]; 24 h, 24 h treatment, 1 nM R1881, mean and SD of 2-6 independent experiments) [nM]	activity in PSA luciferase assay (in words) ([1]; up to 25 μM)	22Rv1 xenograft tumor growth (tumor volume) (22Rv 1 xenograft tumors)	LNCaP xenograft tumor growth (tumor volume) (LNCaP xenograft tumors)	effectiveness against 22Rv1 (22Rv1)
Cc1ccc(Cl)cc1N1CCN(C(=O)[C@@H]2C[C@@H]2c2ccc(F)cc2)CC1 (racemic) [JJ-450, (4-(5-Chloro-2-methylphenyl)piperazin-1-yl)((1RS,2SR)-2-(4-fluorophenyl)cyclopropyl)-methanone]	2700 ± 1100	significantly more potent than 1	significantly inhibited tumor growth	significantly inhibited tumor growth	
CNC(=O)c1ccc(N2C(=S)N(c3ccc(C#N)c(C(F)(F)F)c3)C(=O)C2(C)C)cc1F [MDV3100, enzalutamide]					ineffective
